The values that follow come from US8232248B2, “Treatment of rheumatoid arthritis with mammal beta defensins” (Novozymes Adenium Biotech A/S, priority 2008, dated 2012).

In series [1] the test system is TNF production from human peripheral blood mononuclear cells (PBMC). Put plainly: TNF production from PBMC stimulated with LPS, LTA, PGN or Pam3CSK4, 24 h, Cytometric Bead Array. In kind it is cell-based. Particulars: Table 18. The protocol: (§1) Peripheral blood was drawn from healthy volunteers (with approval from the relevant ethical committee in Denmark). Heparinized blood was diluted 1/1 v/v with RPMI and were subjected to Ficoll density centrifugation within 2 h of drawing. Plasma was collected from the top from individual donors and was kept on ice until it was used at 2% in the culture medium (autologous culture medium). Isolated PBMC were resuspended in autologous culture medium and seeded in 96-well culture plates with 255.000 cells per well in a total of 200 μl. […] The concentrations used for stimulation were optimized on 3 different donors in initial experiments, for LPS two different concentrations were used to be sure to be on a cytokine level that is possible to modulate. In some experiments PBMC were treated with Dexamethason and Indomethacin alone and together with LPS or LTA as a control on downregulation of inflammatory cytokines. The supernatants were collected after incubation at 37° C. for 24 hours, and stored at −80° C. until cytokine measurement. Viability was measured by Alamar Blue (Biosource, DALL 1100) in all experiments and in some cases also by MTS (Promega) according to manufacturer's instruction and was in some experiments also judged by counting of the cells by a Nucleocounter.
(§2) Cytokine production in supernatants was measured by flow cytometry with a human inflammation cytometric bead array (CBA) according to manufacturer's instructions (BD) on a FACSarray flow cytometer. The following cytokines were measured: IL-8, IL-1β, IL-10, TNF, IL-12 p70, IL-6. In some experiments, cytokines were measured by ELISA kits from R&D systems (IL-10, TNF-α, IL-1β) according to the manufacturer' instruction.
(§3) All experiments were performed at least twice, with representative results shown. The data presented are expressed as mean plus/minus standard deviation (SD). […] Differences were considered significant for p<0.05.
Example 3 was carried out essentially as described in Example 2. […]

Series [2] concerns IL-1β production from human peripheral blood mononuclear cells (PBMC). In words: IL-1β production from PBMC stimulated with LPS or LTA, 24 h, Cytometric Bead Array. Format: cell-based. Particulars: Table 20. The protocol: as §1, §2, §3
Series [3] deals with IL-10 production from human peripheral blood mononuclear cells (PBMC). In words: IL-10 production from PBMC stimulated with LPS, LTA or PGN, 24 h, Cytometric Bead Array. In kind it is cell-based. The note with it: Table 19. The protocol: as §1, §2, §3
The next series deals with IL-23, human PBMC. In words: IL-23 in supernatants of human PBMC, ELISA. In kind it is cell-based. The note with it: Infliximab 1 μg/ml. The protocol:
as §1
Moreover, the effect of rhBD2 on human monocyte-derived dendritic cells was also investigated.
Cell culture supernatants were collected and stored at −80° C. Amounts of IL-23 was measured by standard sandwich ELISA using commercially available antibodies and standards according to the manufacturer's protocols (eBioscience).
All experiments were performed at least twice, with representative results shown. The data presented are expressed as mean plus/minus standard deviation […]. […] Differences were considered significant for p<0.05.

Series [4] has as its system TNF production from mouse peripheral blood mononuclear cells (PBMC). Put plainly: TNF production from mouse PBMC, mouse inflammation CBA. Format: cell-based. Particulars: Infliximab 1 μg/ml. The protocol: Mouse peripheral blood mononuclear cells were isolated from blood of ten NMRI mice. In short, heparinized blood was diluted 1/1 v/v with RPMI and subjected to Ficoll density centrifugation within 2 h of drawing. Plasma was collected from the top and discarded. Isolated PBMC were resuspended in culture medium (RPMI 1640 (Gibco, 42401) w/1% penicillin and streptomycin and 1% L-Glutamine) and seeded in 96-well culture plates with 115.500 cells per well in a total of 200 μl. […] The supernatants were collected after incubation at 37° C. for 24 hours, and stored at −80° C. until cytokine measurement.
Cytokine production in supernatants was measured by flow cytometry with a mouse inflammation cytometric bead array (CBA) according to manufacturer's instructions (BD) on a FACSarray flow cytometer.

A further series deals with PBMC. In words: PBMC viability, Alamar Blue. In kind it is cell-based, human. The protocol:
as §1

[5] abbreviates: positive control, concentration not given, LPS 0.6 ng/ml.
The mark [6] stands for this setting: positive control, concentration not given, LPS 20 ng/ml.
[7] abbreviates: positive control, concentration not given, Medium, non-treated 0.
Where [8] appears, read: test compound 1 μg/ml, LPS 0.6 ng/ml.
Setting [9] is: test compound 1 μg/ml, LPS 20 ng/ml.
Where [10] appears, read: test compound 1 μg/ml, Medium, non-treated 1.
Where [11] appears, read: test compound 1 μg/ml, LPS 0.6 ng/ml, non-treated 741.
Where [12] appears, read: test compound 1 μg/ml, LPS 20 ng/ml, non-treated 2544.
Where [13] appears, read: test compound 1 μg/ml, Medium, non-treated 0.
The mark [14] stands for this setting: test compound 1 μg/ml, LPS 0.6 ng/ml, non-treated 66.
The mark [15] stands for this setting: test compound 10 μg/ml, LPS 0.6 ng/ml.
[16] abbreviates: test compound 10 μg/ml, LPS 20 ng/ml.
Where [17] appears, read: test compound 10 μg/ml, Medium, non-treated 0.

Take “Infliximab: anti-inflammatory compound included as positive control on downregulation of TNF [reference compound]”: the “TNF % of control” value in series [1] (setting [5]) and in series [1] (setting [6]) was 0% in each case. For the same substance, the TNF was 0 pg/mL in series [1] (positive control, concentration not given, LPS 0.6 ng/ml, non-treated 728); 0 pg/mL in series [1] (positive control, concentration not given, LPS 20 ng/ml, non-treated 2164); 0 pg/mL in series [1] (positive control, concentration not given, Medium, non-treated 1); 2119 pg/mL in series [4] (LPS 20 ng/ml, untreated 2063); 530 pg/mL in series [4] (Medium, untreated 578). Further, the “IL-1β % of control” value was 86% in series [2] (setting [5]) and 106% in series [2] (setting [6]). In addition, the IL-1β in series [2] (positive control, concentration not given, LPS 0.6 ng/ml, non-treated 741) was determined as 636 pg/mL; in series [2] (positive control, concentration not given, LPS 20 ng/ml, non-treated 2544), 2704 pg/mL; in series [2] (setting [7]) it was 0 pg/mL. For the same substance, the “IL-10 % of control” value worked out at 69% in series [3] (setting [5]) and 56% in series [3] (setting [6]). For the same substance, the IL-10 in series [3] (positive control, concentration not given, LPS 0.6 ng/ml, non-treated 66) came to 46 pg/mL; in series [3] (positive control, concentration not given, LPS 20 ng/ml, non-treated 111), 63 pg/mL; in series [3] (setting [7]), 0 pg/mL. In addition, the IL-23 is 227 pg/mL with IL-23, human PBMC (Control (medium), non-treated 257); 356 pg/mL in the series with IL-23, human PBMC (LPS 0.6 ng/ml, non-treated 553); 373 pg/mL in the series with IL-23, human PBMC (LPS 20 ng/ml, non-treated 510); 349 pg/mL in the series on IL-23, human PBMC (LTA 5 μg/ml, non-treated 762).

Take “hBD3: human beta defensin 3, SEQ ID NO:3, obtained from Peptide Institute Inc.”: the “TNF % of control” value in series [1] (setting [8]) turned out to be 73%; in series [1] (setting [9]) it was 21%. Further, the TNF worked out at 528 pg/mL in series [1] (test compound 1 μg/ml, LPS 0.6 ng/ml, non-treated 728); 451 pg/mL in series [1] (test compound 1 μg/ml, LPS 20 ng/ml, non-treated 2164); 0 pg/mL in series [1] (setting [10]). The “IL-1β % of control” value worked out at 45% in series [2] (setting [8]) and 22% in series [2] (setting [9]). The figures for the IL-1β in series [2] (setting [11]), in series [2] (setting [12]) and in series [2] (setting [13]) were 331 pg/mL, 568 pg/mL and 0 pg/mL, respectively. Also, the “IL-10 % of control” value in series [3] (setting [8]) worked out at 107%; in series [3] (setting [9]) it was 137%. Besides, the IL-10 in series [3] (setting [14]) turned out to be 71 pg/mL; in series [3] (setting [13]), 0 pg/mL. In addition, the “Toxicity to the cells” value in the series on PBMC (10 μg/ml and 40 μg/ml) is “toxic to the cells”.

In the case of “hBD4 variant: consists of amino acids 3-39 of hBD4, SEQ ID NO:5 (ELDRICGYGTARCRKKCRSQEYRIGRCPNTYACCLRK; hBD-4 variant consisting of amino acids 3-39 of SEQ ID NO4)”, the “TNF % of control” value is given as 64% in series [1] (setting [8]), 36% in series [1] (setting [9]), 29% in series [1] (setting [15]) and 6% in series [1] (setting [16]). Also, the TNF in series [1] (setting [10]) was 0 pg/mL; in series [1] (test compound 10 μg/ml, Medium, non-treated 1) it was 0 pg/mL. Further, the “IL-1β % of control” value in series [2] (setting [8]) was found to be 39%; in series [2] (setting [9]) it was 40%; in series [2] (setting [15]), 22%; in series [2] (setting [16]), 18%. Further, the IL-1β in series [2] (setting [11]) stood at 286 pg/mL; in series [2] (setting [12]), 1004 pg/mL; in series [2] (setting [13]), 0 pg/mL; in series [2] (test compound 10 μg/ml, LPS 0.6 ng/ml, non-treated 741), 163 pg/mL; in series [2] (test compound 10 μg/ml, LPS 20 ng/ml, non-treated 2544), 463 pg/mL; in series [2] (setting [17]), 0 pg/mL. Besides, the “Secretion of IL-10” value in series [3] (PBMC with LPS) is “significantly and dose-dependently enhanced”. The IL-10 amounted to 90 pg/mL in series [3] (setting [14]); 0 pg/mL in series [3] (setting [13]); 92 pg/mL in series [3] (test compound 10 μg/ml, LPS 0.6 ng/ml, non-treated 66); 0 pg/mL in series [3] (setting [17]). The “Toxicity to the cells” value in the series on PBMC (40 μg/ml) is on record as “toxic to the cells”.
